SMILES strings stand for the structures.

Experimental findings from patent US11407748B2, “Substituted pyrido[1,2-a]pyrimidines and pyrazino[1,2-a]pyrimidines for enhancing AMPA receptor function” (Takeda Pharmaceutical Company Limited, priority 2017, dated 2022) are described below.

The target in the first test is T1, hGluR1 flip (Homo sapiens, UniProt P42261).
T1 construct: expressed in transfected cells; host or cells: CHO-K1
T1 sequence (P42261 19-906 isoform P42261-2 limits assumed): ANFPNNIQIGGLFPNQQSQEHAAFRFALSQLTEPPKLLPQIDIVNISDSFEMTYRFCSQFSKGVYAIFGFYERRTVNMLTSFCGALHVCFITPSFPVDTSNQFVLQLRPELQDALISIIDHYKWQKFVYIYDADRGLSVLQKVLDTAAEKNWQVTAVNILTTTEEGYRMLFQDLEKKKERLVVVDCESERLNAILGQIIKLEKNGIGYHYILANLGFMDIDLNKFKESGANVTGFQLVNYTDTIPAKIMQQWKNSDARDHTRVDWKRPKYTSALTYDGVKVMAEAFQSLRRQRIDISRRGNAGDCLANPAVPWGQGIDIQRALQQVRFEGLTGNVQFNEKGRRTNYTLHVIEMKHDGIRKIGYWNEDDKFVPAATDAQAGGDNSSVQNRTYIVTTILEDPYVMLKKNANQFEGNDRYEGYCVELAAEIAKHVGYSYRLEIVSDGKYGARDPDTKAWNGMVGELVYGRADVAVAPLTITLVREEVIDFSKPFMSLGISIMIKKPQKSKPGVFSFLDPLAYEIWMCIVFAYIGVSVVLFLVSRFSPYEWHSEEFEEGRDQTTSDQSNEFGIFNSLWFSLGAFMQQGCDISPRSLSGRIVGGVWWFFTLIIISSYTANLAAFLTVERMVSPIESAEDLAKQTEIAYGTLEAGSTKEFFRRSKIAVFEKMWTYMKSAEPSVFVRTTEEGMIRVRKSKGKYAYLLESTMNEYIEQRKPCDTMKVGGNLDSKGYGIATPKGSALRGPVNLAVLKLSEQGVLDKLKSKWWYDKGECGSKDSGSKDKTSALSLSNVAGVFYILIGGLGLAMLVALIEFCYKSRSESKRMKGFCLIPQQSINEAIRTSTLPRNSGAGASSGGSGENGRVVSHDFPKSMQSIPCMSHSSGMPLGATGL
T1 sequence (Q9Y698 whole entry partner): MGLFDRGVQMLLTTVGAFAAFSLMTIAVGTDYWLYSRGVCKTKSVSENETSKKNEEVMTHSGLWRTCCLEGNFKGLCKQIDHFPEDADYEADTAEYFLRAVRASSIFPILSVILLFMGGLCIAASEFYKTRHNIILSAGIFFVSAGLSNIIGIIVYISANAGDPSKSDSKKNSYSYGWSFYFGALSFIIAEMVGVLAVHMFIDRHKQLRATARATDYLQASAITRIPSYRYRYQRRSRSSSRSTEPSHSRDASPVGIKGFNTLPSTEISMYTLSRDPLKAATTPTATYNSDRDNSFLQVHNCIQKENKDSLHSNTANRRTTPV
Description: AMPA receptor function-enhancing activity using calcium influx as index. Format: cell-based. As to conditions: test compound 30 μM with 3 mM glutamic acid; CHO-K1/GluR1 flip/stargazin-expressing cells; 100% = 3 mM glutamic acid + 300 μM cyclothiazide, 0% = 3 mM glutamic acid alone. In a few lines: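 CHO-K1 cells co-expressing human GluR1 flip and stargazin, loaded with Calcium5 dye with 1.25 mM probenecid. Test compound at 30 μM added with 3 mM glutamate; fluorescence followed 3 min. Activity % scaled between glutamate alone (0%) and glutamate plus 300 μM cyclothiazide (100%).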
For `O=C(c1ccc(-c2cccn3c(=O)c(Br)c(C(F)(F)F)nc23)cc1)N1CCOCC1` [Example 14, 3-bromo-9-(4-(morpholin-4-ylcarbonyl)phenyl)-2-(trifluoromethyl)-4H-pyrido[1,2-a]pyrimidin-4-one], the activation at 30 µM was 94.3%.
As for `C[C@H]1CN(C(=O)c2ccc(-c3cccn4c(=O)c(Br)c(C(F)(F)F)nc34)cc2)CCO1` [Example 48, 3-bromo-9-(4-(((2S)-2-methylmorpholin-4-yl)carbonyl)phenyl)-2-(trifluoromethyl)-4H-pyrido[1,2-a]pyrimidin-4-one], the activation at 30 µM was determined as 88.1%.
For `O=C(N[C@@H]1CCCOC1)c1ccc(-c2cccn3c(=O)c(Br)c(C(F)(F)F)nc23)cc1F` [Example 111, 4-(3-bromo-4-oxo-2-(trifluoromethyl)-4H-pyrido[1,2-a]pyrimidin-9-yl)-2-fluoro-N-((3R)-tetrahydro-2H-pyran-3-yl)benzamide], the activation at 30 µM was found to be 91%.
Consider `O=C(c1ccc(-c2cccn3c(=O)c(Br)c(C(F)(F)F)nc23)cc1)N1CCOC(C(F)F)C1` (stereo not drawn) [Example 113, 3-bromo-9-(4-((2-(difluoromethyl)morpholin-4-yl)carbonyl)phenyl)-2-(trifluoromethyl)-4H-pyrido[1,2-a]pyrimidin-4-one], for which the “hGluR1 flip/30 μM (%)” value is listed as 78.7%.
Take `O=C(c1ccc(-c2cccn3c(=O)c(Br)c(C(F)(F)F)nc23)cc1)N1CCOC(C(F)F)C1` (stereo not drawn) [Example 114, 3-bromo-9-(4-((2-(difluoromethyl)morpholin-4-yl)carbonyl)phenyl)-2-(trifluoromethyl)-4H-pyrido[1,2-a]pyrimidin-4-one]: the “hGluR1 flip/30 μM (%)” value is on record as 77.2%.
Regarding `Cc1c(C(F)(F)F)nc2c(-c3ccc(C(=O)N[C@H]4CCCOC4)c(F)c3)cccn2c1=O` [Example 115, 2-fluoro-4-(3-methyl-4-oxo-2-(trifluoromethyl)-4H-pyrido[1,2-a]pyrimidin-9-yl)-N-((3S)-tetrahydro-2H-pyran-3-yl)benzamide], the activation at 30 µM worked out at 87.9%.
For the compound `CN(CC1(C#N)CC1)C(=O)c1ccc(-c2cccn3c(=O)c(Br)c(C(F)(F)F)nc23)cc1` [Example 118, 4-(3-bromo-4-oxo-2-(trifluoromethyl)-4H-pyrido[1,2-a]pyrimidin-9-yl)-N-((1-cyanocyclopropyl)methyl)-N-methylbenzamide], the activation at 30 µM is 84%.
On to `O=C(c1ccc(-c2cccn3c(=O)c(Br)c(C(F)(F)F)nc23)cc1)N1CCOCC(F)(F)C1` [Example 119, 3-bromo-9-(4-((6,6-difluoro-1,4-oxazepan-4-yl)carbonyl)phenyl)-2-(trifluoromethyl)-4H-pyrido[1,2-a]pyrimidin-4-one], for which the activation at 30 µM was 71%.
On to `N#CC1CCN(C(=O)c2ccc(-c3cccn4c(=O)c(Br)c(C(F)(F)F)nc34)cc2)C1` (stereo not drawn) [Example 120, 1-(4-(3-bromo-4-oxo-2-(trifluoromethyl)-4H-pyrido[1,2-a]pyrimidin-9-yl)benzoyl)pyrrolidine-3-carbonitrile], for which the activation at 30 µM worked out at 71.5%.
Take `Cc1c(C(F)(F)F)nc2c(-c3ccc(C(=O)N4CCC(C#N)C4)cc3)cccn2c1=O` (stereo not drawn) [Example 121, 1-(4-(3-methyl-4-oxo-2-(trifluoromethyl)-4H-pyrido[1,2-a]pyrimidin-9-yl)benzoyl)pyrrolidine-3-carbonitrile]: the activation at 30 µM was determined as 84.4%.
Still for that read-out and setting: the result for `O=C(N[C@H]1CCCOC1)c1ccc(-c2cccn3c(=O)cc(C(F)(F)F)nc23)cc1` [Example 122, 4-(4-oxo-2-(trifluoromethyl)-4H-pyrido[1,2-a]pyrimidin-9-yl)-N-((3S)-tetrahydro-2H-pyran-3-yl)benzamide] reads 71.4%; that for `O=C(NC1CCOCC1)c1ccc(-c2cccn3c(=O)cc(C(F)(F)F)nc23)cc1` [Example 123, 4-(4-oxo-2-(trifluoromethyl)-4H-pyrido[1,2-a]pyrimidin-9-yl)-N-(tetrahydro-2H-pyran-4-yl)benzamide], 83.2%; that for `O=C(NC1CCOCC1)c1ccc(-c2cccn3c(=O)c(Br)c(C(F)(F)F)nc23)cc1F` [Example 124, 4-(3-bromo-4-oxo-2-(trifluoromethyl)-4H-pyrido[1,2-a]pyrimidin-9-yl)-2-fluoro-N-(tetrahydro-2H-pyran-4-yl)benzamide], 86.3%.
On to `Cc1c(C(F)(F)F)nc2c(-c3ccc(C(=O)NC4CCOCC4)cc3)cccn2c1=O` [Example 125, 4-(3-methyl-4-oxo-2-(trifluoromethyl)-4H-pyrido[1,2-a]pyrimidin-9-yl)-N-(tetrahydro-2H-pyran-4-yl)benzamide], for which the activation at 30 µM amounted to 86.7%.
With `O=C(c1ccc(-c2cccn3c(=O)c(Br)c(C(F)(F)F)nc23)cc1)N1CCOC2CC21` (stereo not drawn) [Example 127, 3-bromo-9-(4-(2-oxa-5-azabicyclo[4.1.0]hept-5-ylcarbonyl)phenyl)-2-(trifluoromethyl)-4H-pyrido[1,2-a]pyrimidin-4-one], the activation at 30 µM was 74.7%.
`O=C(c1ccc(-c2cccn3c(=O)c(Br)c(C(F)(F)F)nc23)cc1)N1CCOC2CC21` (stereo not drawn) [Example 128, 3-bromo-9-(4-(2-oxa-5 azabicyclo[4.1.0]hept-5-ylcarbonyl)phenyl)-2-(trifluoromethyl)-4H-pyrido[1,2-a]pyrimidin-4-one]: the “hGluR1 flip/30 μM (%)” value is 70.9%.
Regarding `Cc1c(C(F)(F)F)nc2c(-c3ccc(C(=O)N4CC(F)(F)C4)c(F)c3)cccn2c1=O` [Example 129, 9-(4-((3,3-difluoroazetidin-1-yl)carbonyl)-3-fluorophenyl)-3-methyl-2-(trifluoromethyl)-4H-pyrido[1,2-a]pyrimidin-4-one], the activation at 30 µM turned out to be 80.4%.
In the case of `O=C(c1ccc(-c2cccn3c(=O)c(Br)c(C(F)(F)F)nc23)cc1F)N1CC(F)(F)C1` [Example 130, 3-bromo-9-(4-((3,3-difluoroazetidin-1-yl)carbonyl)-3-fluorophenyl)-2-(trifluoromethyl)-4H-pyrido[1,2-a]pyrimidin-4-one], the activation at 30 µM worked out at 96%.
`O=C(NC1CCOCC1)c1ccc(-c2cccn3c(=O)c(Cl)c(C(F)(F)F)nc23)cc1` [Example 131, 4-(3-chloro-4-oxo-2-(trifluoromethyl)-4H-pyrido[1,2-a]pyrimidin-9-yl)-N-(tetrahydro-2H-pyran-4-yl)benzamide]: the activation at 30 µM was found to be 110%.
As to `O=C(N[C@H]1CCCOC1)c1ccc(-c2cccn3c(=O)c(Cl)c(C(F)(F)F)nc23)cc1` [Example 132, 4-(3-chloro-4-oxo-2-(trifluoromethyl)-4H-pyrido[1,2-a]pyrimidin-9-yl)-N-((3S)-tetrahydro-2H-pyran-3-yl)benzamide], the activation at 30 µM came out at 106%.

The test system of a further test is Long Evans rats. Description: Novel object recognition test. Format: in vivo, rat. Particulars: 1 mg/kg p.o., 1 hr before acquisition trial and 1 hr before retention trial; retention trial 48 hr after acquisition; mean ± standard error. The text has this: Experimental Example 2 Novel Object Recognition Test (1) Animals
Male Long Evans rats were supplied by Japan SLC, and used at 7-week-old in the experiments. After arrival to the vivarium, animals were allowed a minimum of 1 week for acclimation. They were housed under a 12:12-h light/dark cycle in a temperature- and humidity-controlled laboratory and allowed food and water ad libitum.
A test compound was suspended in 0.5% methylcellulose in distilled water and orally administered (p.o.). All test compounds were dosed in a volume of 2 mL/kg body weight for rats.
(3) Novel Object Recognition Test
Novel object recognition test is a test system utilizing the novel object preference characteristics of rodents. This novel object recognition test consists of two trials, “acquisition trial” and “retention trial”, and, when an interval between these two trials is short, rodents spend a longer period for novel object exploration behaviors, and the preference dissipates as the interval gets longer. From this, the behavioral change in the novel object recognition test is considered to reflect the rodents' memory of the object during the acquisition trial. In this experimental example, the retention trial was carried out 48 hr after the acquisition trial. On the day before the test, for acclimation, Long-Evans ats were allowed to freely move about the test box (40×40×50 cm) for 10 minutes. On the test day, the rats were acclimated to the test room for about 1 hr prior to the test. The test compound (Compound A (Example 14), Compound B (Example 48), 1 mg/kg) were orally administered to the rats twice 1 hr before the acquisition trial and 1 hr before the retention trial. For the acquisition trial, two identical objects (A1, A2) were placed in the test box. The rats were put in the test box for 3 min, and the duration contacting each object was measured. The retention trial was carried out 48 hr after the acquisition trial. For the retention trial, the familiar object (A3) used for the acquisition trial and the novel object (B) different shape from A3 were placed in the test box. The rats were put in the test box for 3 min. The duration contacting each object in the acquisition trial and the retention trial, and the novel object interaction (%) was calculated. The novel object interaction (%) was expressed as (the duration contacting the novel object)/[(the duration contacting the novel object)+(the duration contacting the familiar object)]×100(%) at mean±standard error.
Regarding `O=C(c1ccc(-c2cccn3c(=O)c(Br)c(C(F)(F)F)nc23)cc1)N1CCOCC1` [Example 14, 3-bromo-9-(4-(morpholin-4-ylcarbonyl)phenyl)-2-(trifluoromethyl)-4H-pyrido[1,2-a]pyrimidin-4-one], the “Novel Object Interaction (%)” value is on record as 61.94 ± 2.33%.
On to `C[C@H]1CN(C(=O)c2ccc(-c3cccn4c(=O)c(Br)c(C(F)(F)F)nc34)cc2)CCO1` [Example 48, 3-bromo-9-(4-(((2S)-2-methylmorpholin-4-yl)carbonyl)phenyl)-2-(trifluoromethyl)-4H-pyrido[1,2-a]pyrimidin-4-one], for which the “Novel Object Interaction (%)” value is given as 61.42 ± 2.61%.

Still in this test, the particulars now being: 1 mg/kg p.o., rats.
In the case of `O=C(c1ccc(-c2cccn3c(=O)c(Br)c(C(F)(F)F)nc23)cc1)N1CCOCC1` [Example 14, 3-bromo-9-(4-(morpholin-4-ylcarbonyl)phenyl)-2-(trifluoromethyl)-4H-pyrido[1,2-a]pyrimidin-4-one], the “novel object interaction (result in words)” value is “increased the novel object interaction”.
Same read-out and setting: the same measure for `C[C@H]1CN(C(=O)c2ccc(-c3cccn4c(=O)c(Br)c(C(F)(F)F)nc34)cc2)CCO1` [Example 48, 3-bromo-9-(4-(((2S)-2-methylmorpholin-4-yl)carbonyl)phenyl)-2-(trifluoromethyl)-4H-pyrido[1,2-a]pyrimidin-4-one]: “increased the novel object interaction”.
